Data taken from PubChem BioAssay (NCI).
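Briefly, cells in 96-well plates were exposed to five compound concentrations for 48 h, and endpoints were estimated by linear interpolation. TGI marks complete inhibition of growth.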

How the values were obtained:
Test in all cases: NCI-60 cell line screen, 48 h
786-0 renal = tested on: 786-0 renal
A498 renal = tested on: A498 renal
A549 NSCLC = tested on: A549 NSCLC
ACHN renal = tested on: ACHN renal
BT-549 breast = tested on: BT-549 breast
CCRF-CEM leukemia = tested on: CCRF-CEM leukemia
COLO 205 colon = tested on: COLO 205 colon
DU-145 prostate = tested on: DU-145 prostate
EKVX NSCLC = tested on: EKVX NSCLC
HCT-116 colon = tested on: HCT-116 colon
HCT-15 colon = tested on: HCT-15 colon
HL-60(TB) leukemia = tested on: HL-60(TB) leukemia
HOP-62 NSCLC = tested on: HOP-62 NSCLC
HOP-92 NSCLC = tested on: HOP-92 NSCLC
HS 578T breast = tested on: HS 578T breast
HT29 colon = tested on: HT29 colon
IGROV1 ovarian = tested on: IGROV1 ovarian
K-562 leukemia = tested on: K-562 leukemia
KM12 colon = tested on: KM12 colon
M14 melanoma = tested on: M14 melanoma
MALME-3M melanoma = tested on: MALME-3M melanoma
MCF7 breast = tested on: MCF7 breast
MDA-MB-231 breast = tested on: MDA-MB-231 breast
MDA-MB-435 = tested on: MDA-MB-435
MDA-N = tested on: MDA-N
MOLT-4 leukemia = tested on: MOLT-4 leukemia
NCI-H226 lung = tested on: NCI-H226 lung
NCI-H23 lung = tested on: NCI-H23 lung
NCI-H460 lung = tested on: NCI-H460 lung
NCI-H522 lung = tested on: NCI-H522 lung
NCI/ADR-RES ovarian = tested on: NCI/ADR-RES ovarian
OVCAR-3 ovarian = tested on: OVCAR-3 ovarian
OVCAR-4 ovarian = tested on: OVCAR-4 ovarian
OVCAR-5 ovarian = tested on: OVCAR-5 ovarian
OVCAR-8 ovarian = tested on: OVCAR-8 ovarian
PC-3 prostate = tested on: PC-3 prostate
RPMI-8226 leukemia = tested on: RPMI-8226 leukemia
RXF 393 renal = tested on: RXF 393 renal
SF-268 CNS = tested on: SF-268 CNS
SF-295 CNS = tested on: SF-295 CNS
SF-539 CNS = tested on: SF-539 CNS
SK-MEL-2 melanoma = tested on: SK-MEL-2 melanoma
SK-MEL-28 melanoma = tested on: SK-MEL-28 melanoma
SK-OV-3 ovarian = tested on: SK-OV-3 ovarian
SN12C renal = tested on: SN12C renal
SNB-19 CNS = tested on: SNB-19 CNS
SNB-75 CNS = tested on: SNB-75 CNS
SR leukemia = tested on: SR leukemia
SW-620 colon = tested on: SW-620 colon
TK-10 renal = tested on: TK-10 renal
U251 CNS = tested on: U251 CNS
UACC-257 melanoma = tested on: UACC-257 melanoma
UACC-62 melanoma = tested on: UACC-62 melanoma
UO-31 renal = tested on: UO-31 renal
CAKI-1 renal = tested on: CAKI-1 renal
HCC-2998 colon = tested on: HCC-2998 colon
LOX IMVI melanoma = tested on: LOX IMVI melanoma
SK-MEL-5 melanoma = tested on: SK-MEL-5 melanoma
T-47D breast = tested on: T-47D breast

Measured: TGI

C1=NCCOCCN=Cc2ccc(cc2)OCc2cccc(n2)COc2ccc1cc2
not listed: CAKI-1 renal | HCC-2998 colon | LOX IMVI melanoma | SK-MEL-5 melanoma | T-47D breast
> 100 µM: all other assays above

COc1ccc2c3c1OC1C(OC)(OC)CC4(C=C2)CN(C)CCC314 (stereo unspecified)
not listed: HOP-92 NSCLC | HS 578T breast | M14 melanoma | NCI-H522 lung | PC-3 prostate | SK-MEL-2 melanoma | SR leukemia
> 100 µM: all other assays above
